Patent US20080287398A1, “COLD MENTHOL RECEPTOR-1 ANTAGONISTS” (priority 2007, published 2008)
Where two headings read alike, the source gives them in different places.

How the values were obtained:
human TRPM8 = biological target: T1, human TRPM8 (Homo sapiens, UniProt Q7Z2W7); assay: In vitro human TRPM8 functional assay (Ca2+ dye, FDSS, 100 nM icilin); format: cell-based; settings: HEK293 cells transiently transfected with human TRPM8, read-out: hTRPM8 IC50
T1 construct: the full-length cDNAs encoding human and rat TRPM8 were subcloned; expressed in transfected cells; host or cells: HEK293 (transient, FuGENE 6, pCI-NEO vector)
Protocol: For functional expression of TRPM8, the full-length cDNAs encoding human and rat TRPM8 were subcloned into pCl-NEO mammalian expression vectors. The expression constructs were transiently transfected into HEK293 cells according to the FuGENE 6 transfection reagent® (ROCHE) instructions. HEK293 cells were routinely grown as monolayers in Dulbecco's minimum essential medium supplemented with 10% FBS, 1 mM L-glutamine, 100 units/mL penicillin and 100 ug/mL streptomycin. Cells were maintained in 5% CO2 at 37° C. […] Following incubation, plates were inserted into a FDSS instrument, where cells were challenged with a compound of Formula (I) (at varying concentrations) and intracellular Ca^2+ was measured for 5 min prior to the addition of 100 nM icilin. IC50 values for compounds of the present invention were determined from eight-point dose-response studies
Maximal fluorescence intensity (FI) achieved upon addition of icilin was exported from the FDSS and further analyzed using GraphPad Prism 3.02 (Graph Pad Software Inc., CA, U.S.A.). […] The dose response curves from the average of quadruplicate wells for each data point were analyzed by using nonlinear regression of either sigmoidal dose response or sigmoidal dose response (variable slope). Finally, the IC50 values were calculated with the best-fit dose curve determined by Prism.

Male Sprague Dawley rats = assay: Inhibition of icilin-induced wet-dog shakes in rats; format: in vivo; settings: rat, 15′ pre icilin
canine TRPM8 = biological target: T2, canine TRPM8 (Canis lupus familiaris, UniProt Q1A7N1); assay: TRPM8 patch clamp assay (whole-cell, HEK293 cells); format: cell-based
T2 construct: expressed in transfected cells
Protocol: For patch clamp experiments, HEK293 cells stably transfected with canine TRPM8 were cultured in DMEM supplemented with 10% fetal bovine serum, 100 units/ml penicillin, 100 μg/ml streptomycin and 1 mg/ml G418. Cells were maintained at 37° C. and in 5% CO2.
The extracellular solution contained (in mM): NaCl, 132; EGTA, 1; KCl, 5.4; MgCl2, 0.8; HEPES, 10; glucose, 10; pH=7.4. Recordings were performed using the conventional whole-cell patch clamp technique, 1-2 days after plating cells onto glass coverslips at densities appropriate for single cell recording. Currents were amplified by a patch clamp amplifier and filtered at 2 kHz (Axopatch 200B, Molecular Devices, Union City, Calif.). Menthol (100 μM) was applied to the cell at 0.5 ml/min via a gravity-fed perfusion system. Recordings involving menthol activation were performed at 22° C.
In experiments where temperatures were varied, temperature ramps were generated by cooling the perfusate in an in-line cooler (Model SC-20, Warner Instruments, Hamden, Conn.) controlled by a temperature controller (Model CL-100, Warner Instruments). The temperature in the vicinity of the recorded cell was measured with a custom-made miniature thermo-microprobe connected to a monitoring thermometer (Model TH-8, Physitemp, Clifton, N.J.), and sampled using Digidata 1322A and pClamp 9.0 (Molecular Devices), as were the currents concurrently measured in the whole-cell patch clamp mode. The current was continuously sampled (at 100 Hz) at a holding potential of −60 mV.
Compounds were diluted from 10 mM DMSO stocks (stored at −20° C.) into an extracellular solution either containing 100 μM menthol or subjecting to cooling. Increasing concentrations of a compound were applied to a cell in a cumulative manner and concentration-dependent responses were measured after steady-state activation was achieved by either 100 μM menthol or cooling to 10° C. A saturating concentration of a reference antagonist was applied at the end of an experiment (either in the presence of 100 μM menthol or 10° C. temperature) to establish the baseline from which all the other measurements were subtracted.
Percentage inhibition by a compound was calculated as follows: 100×(1−Icomp/I0); where Icomp and I0 are steady-state current amplitudes in either the presence or absence of a concentration of the compound.

Sprague-Dawley rats = assay: CFA-induced paw radiant heat hypersensitivity; format: in vivo, rat; settings: po, rat; for inhibition in vivo at 30 mg/kg: 30 mg/kg p.o., read-out: % Reversal
Protocol: Intraplantar injection of Complete Freund's Adjuvant (CFA) in rodents results in a long-lasting inflammatory reaction, characterized by a pronounced hypersensitivity to both thermal and mechanical stimuli. This hypersensitivity peaks between 24-72 hours following injection and can last for several weeks. […] This paradigm also may be conducted with a multiple dosing or a prophylactic dosing regime designed to alter the course of hyperalgesia development. This test predicts the analgesic, anti-allodynic and antihyperalgesic effect of numerous effective clinical agents, including NSAIDS such as acetaminophen, aspirin and ibuprofen, and opioids such as morphine.
Each rat was placed in a test chamber on a warm glass surface and allowed to acclimate for approximately 10 minutes. A radiant thermal stimulus (beam of light) was then focused through the glass onto the plantar surface of each hind paw in turn. The thermal stimulus was automatically shut off by a photoelectric relay when the paw was moved or when the cut-off time was reached (20 seconds for radiant heat at ˜5 Amps). An initial (baseline) response latency to the thermal stimulus was recorded for each animal prior to the injection of CFA. Twenty-four hours following intraplantar CFA injection, the response latency of the animal to the thermal stimulus was then re-evaluated and compared to the animal's baseline response time. […] Immediately following the post-CFA latency assessment, test compound or vehicle (usually Solutol, hydroxypropyl methylcellulose, hydroxypropyl beta-cyclodextrin or PEG-400) was administered i.p. or p.o. to rats. […] The percent reversal (% R) of hypersenstivitiy was calculated according to the following formula:
% Reversal=(Treatment Response-CFA Response)/(Baseline Response-CFA Response)×100.

[1] = IC50, mode of activation Menthol (100 μM), HEK293 cells stably transfected with canine TRPM8, 100 μM menthol, 22° C.

T2 sequence (Q1A7N1 1-1104): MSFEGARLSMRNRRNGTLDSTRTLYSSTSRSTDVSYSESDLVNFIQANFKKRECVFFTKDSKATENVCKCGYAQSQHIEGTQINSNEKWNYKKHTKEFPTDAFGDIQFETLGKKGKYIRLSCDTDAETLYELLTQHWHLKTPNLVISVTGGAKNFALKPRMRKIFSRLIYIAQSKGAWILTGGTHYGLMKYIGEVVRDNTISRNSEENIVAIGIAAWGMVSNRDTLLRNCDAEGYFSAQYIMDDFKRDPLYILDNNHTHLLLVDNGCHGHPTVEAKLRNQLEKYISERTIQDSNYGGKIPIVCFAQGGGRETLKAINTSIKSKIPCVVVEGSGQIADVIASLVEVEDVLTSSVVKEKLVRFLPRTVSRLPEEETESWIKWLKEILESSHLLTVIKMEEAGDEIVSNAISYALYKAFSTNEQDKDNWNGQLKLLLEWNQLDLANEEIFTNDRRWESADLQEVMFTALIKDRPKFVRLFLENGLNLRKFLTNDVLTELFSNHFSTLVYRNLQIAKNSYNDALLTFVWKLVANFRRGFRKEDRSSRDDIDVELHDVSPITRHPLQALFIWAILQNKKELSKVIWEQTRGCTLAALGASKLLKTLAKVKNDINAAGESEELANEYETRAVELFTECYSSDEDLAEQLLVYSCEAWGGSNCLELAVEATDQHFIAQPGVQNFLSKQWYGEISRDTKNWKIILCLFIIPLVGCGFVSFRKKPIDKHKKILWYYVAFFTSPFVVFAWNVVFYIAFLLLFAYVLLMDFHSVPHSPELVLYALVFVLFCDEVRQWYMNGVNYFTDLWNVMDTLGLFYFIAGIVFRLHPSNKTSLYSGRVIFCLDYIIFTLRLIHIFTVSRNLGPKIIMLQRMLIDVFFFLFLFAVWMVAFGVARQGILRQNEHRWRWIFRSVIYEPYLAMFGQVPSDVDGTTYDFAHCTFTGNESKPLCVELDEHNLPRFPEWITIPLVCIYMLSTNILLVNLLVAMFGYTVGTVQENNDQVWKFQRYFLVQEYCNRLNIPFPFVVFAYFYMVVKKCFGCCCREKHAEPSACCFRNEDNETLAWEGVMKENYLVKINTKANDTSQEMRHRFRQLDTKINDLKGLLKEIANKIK
T1 sequence (Q7Z2W7 whole entry): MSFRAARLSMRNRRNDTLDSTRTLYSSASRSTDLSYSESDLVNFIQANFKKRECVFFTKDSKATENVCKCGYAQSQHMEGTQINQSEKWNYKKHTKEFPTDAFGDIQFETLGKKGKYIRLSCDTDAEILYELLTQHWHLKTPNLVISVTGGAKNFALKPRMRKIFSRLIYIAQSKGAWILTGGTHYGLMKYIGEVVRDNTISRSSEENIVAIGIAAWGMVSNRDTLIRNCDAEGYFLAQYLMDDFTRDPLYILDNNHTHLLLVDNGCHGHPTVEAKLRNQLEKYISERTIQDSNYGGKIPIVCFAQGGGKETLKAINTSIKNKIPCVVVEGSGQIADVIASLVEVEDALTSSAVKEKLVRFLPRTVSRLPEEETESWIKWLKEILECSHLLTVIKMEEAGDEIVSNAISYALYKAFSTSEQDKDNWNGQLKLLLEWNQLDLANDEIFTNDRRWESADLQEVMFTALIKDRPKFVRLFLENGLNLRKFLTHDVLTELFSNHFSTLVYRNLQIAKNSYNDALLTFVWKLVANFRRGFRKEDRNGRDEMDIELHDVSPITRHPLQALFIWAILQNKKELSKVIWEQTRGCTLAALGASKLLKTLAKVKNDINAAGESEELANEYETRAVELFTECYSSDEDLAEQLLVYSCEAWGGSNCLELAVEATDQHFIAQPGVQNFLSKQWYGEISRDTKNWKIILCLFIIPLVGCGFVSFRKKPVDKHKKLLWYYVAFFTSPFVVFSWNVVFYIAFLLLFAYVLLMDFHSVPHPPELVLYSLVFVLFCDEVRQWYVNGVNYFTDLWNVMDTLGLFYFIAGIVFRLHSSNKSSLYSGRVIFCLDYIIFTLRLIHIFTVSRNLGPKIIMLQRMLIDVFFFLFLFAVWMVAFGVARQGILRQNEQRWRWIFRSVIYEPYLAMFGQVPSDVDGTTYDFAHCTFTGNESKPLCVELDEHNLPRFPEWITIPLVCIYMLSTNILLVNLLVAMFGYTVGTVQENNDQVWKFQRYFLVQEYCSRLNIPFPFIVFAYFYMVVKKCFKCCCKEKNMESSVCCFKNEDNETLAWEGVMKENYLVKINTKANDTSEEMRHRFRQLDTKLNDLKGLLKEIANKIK

Row | SMILES | IC50 (human TRPM8) | ED50 (Male Sprague Dawley rats; po) | % Inhibition (Male Sprague Dawley rats; 10 mg/kg p.o.) | % Inhibition (Male Sprague Dawley rats; 30 mg/kg p.o.) | % Inhibition (Male Sprague Dawley rats; 100 mg/kg p.o.) | IC50 (canine TRPM8; IC50, mode of activation Cold (10° C.), HEK293 cells stably transfected with canine TRPM8, cooling to 10° C.) | IC50 (canine TRPM8; [1]) | inhibition in vivo at 30 mg/kg (Sprague-Dawley rats; time 1 h) | inhibition in vivo at 30 mg/kg (Sprague-Dawley rats; time 2 h (printed 2 h or 2)) | ED50 (Sprague-Dawley rats; p.o., read-out: ED50)
1 | CC(C)OP(=O)(OC(C)C)[C@@H](Cc1ccc(F)c(F)c1)c1sc2ccccc2c1Br [Cpd 234, (S)-[1-(3-Bromo-benzo[b]thiophen-2-yl)-2-(3,4-difluoro-phenyl)-ethyl]-phosphonic acid diisopropyl ester] | 0.054 nM | 24.3 mg/kg | 14.2% | 68.0% | 92.9% | 1.6 nM | 4.7 nM | 75% | 56% | 6.6 mg/kg
2 | CC(C)OP(=O)(OC(C)C)[C@@H](Cc1ccc(F)c(C(F)(F)F)c1)c1sc2ccccc2c1Br [Cpd 242, (S)-[1-(3-Bromo-benzo[b]thiophen-2-yl)-2-(4-fluoro-3-trifluoromethyl-phenyl)-ethyl]-phosphonic acid diisopropyl ester] | 0.049 nM |  |  |  |  |  | 0.4 nM |  |  | 
